Among the data in the OligoGym collection are 3 h FOB score values, retold here.

HELM strings list units from the 5' end as sugar, base in round brackets, then linkage (d deoxyribose, r ribose, m 2'-O-methyl, p phosphodiester). Strings are as the collection lists them; they lack the last nucleoside at the 3' end of the tested compound. [moe] = 2'-O-(2-methoxyethyl) (MOE); [sp] = phosphorothioate linkage; [m5C] = 5-methylcytosine

The target of the data set is C9ORF72. The data set is described as follows: mouse, dose not given. Conditions: ASO.
The substance “RNA1{[moe]([m5C])[sp].[moe]([m5C])p.[moe](G)p.[moe](G)p.[moe]([m5C])p.[moe]([m5C])p.d([m5C])[sp].d([m5C])[sp].d(T)[sp].d(A)[sp].d(G)[sp].d([m5C])[sp].d(G)[sp].d([m5C])[sp].d(G)[sp].d([m5C])[sp].[moe](G)p.[moe](A)[sp].[moe]([m5C])}$$$$ (last 3' nucleoside missing)” gave a 3 h FOB score of 3.5 score 0-7.

The substance “RNA1{[moe](T)[sp].[moe]([m5C])p.[moe](T)p.[moe](G)p.[moe](T)p.[moe]([m5C])p.[moe](T)[sp].d(T)[sp].d(T)[sp].d(G)[sp].d(G)[sp].d(A)[sp].d(G)[sp].d([m5C])[sp].d([m5C])[sp].[moe]([m5C])[sp].[moe](A)}$$$$ (last 3' nucleoside missing)” returned a 3 h FOB score of 6.25 score 0-7.

With “RNA1{[moe](T)[sp].[moe]([m5C])p.[moe](T)p.[moe](G)p.[moe](T)p.[moe]([m5C])[sp].d(T)[sp].d(T)[sp].d(T)[sp].d(G)[sp].d(G)[sp].d(A)[sp].d(G)[sp].d([m5C])[sp].[moe]([m5C])p.[moe]([m5C])[sp].[moe](A)}$$$$ (last 3' nucleoside missing)”, the 3 h FOB score was 5.5 score 0-7.

With “RNA1{[moe](T)[sp].[moe]([m5C])p.[moe](T)p.[moe](G)p.[moe](T)p.[moe]([m5C])p.[moe](T)p.d(T)[sp].d(T)[sp].d(G)[sp].d(G)[sp].d(A)[sp].d(G)[sp].d([m5C])[sp].d([m5C])[sp].d([m5C])[sp].d(A)[sp].[moe](A)[sp].[moe](A)}$$$$ (last 3' nucleoside missing)”, the 3 h FOB score turned out to be 2 score 0-7.

With “RNA1{[moe]([m5C])[sp].[moe](G)p.[moe](G)p.[moe]([m5C])p.[moe]([m5C])p.[moe]([m5C])p.d([m5C])[sp].d(T)[sp].d(A)[sp].d(G)[sp].d([m5C])[sp].d(G)[sp].d([m5C])[sp].d(G)[sp].d([m5C])[sp].[moe](G)p.[moe](A)[sp].[moe]([m5C])}$$$$ (last 3' nucleoside missing)”, the 3 h FOB score was determined as 3 score 0-7.

Substance “RNA1{[moe](G)[sp].[moe](T)p.[moe](T)p.[moe](A)[sp].d(A)[sp].d(T)[sp].d([m5C])[sp].d(T)[sp].d(T)[sp].d(T)[sp].d(A)[sp].d(T)[sp].[moe]([m5C])p.[moe](A)p.[moe](G)p.[moe](G)[sp].[moe](T)}$$$$ (last 3' nucleoside missing)” had a 3 h FOB score of 1 score 0-7.

Substance “RNA1{[moe](A)[sp].[moe](G)p.[moe](G)p.[moe]([m5C])p.[moe](T)p.[moe](G)p.d([m5C])[sp].d(G)[sp].d(G)[sp].d(T)[sp].d(T)[sp].d(G)[sp].d(T)[sp].d(T)[sp].d(T)[sp].[moe]([m5C])p.[moe]([m5C])[sp].[moe]([m5C])}$$$$ (last 3' nucleoside missing)” registered a 3 h FOB score of 6 score 0-7.

Turning to “RNA1{[moe](G)[sp].[moe](G)p.[moe](T)p.[moe](T)[sp].d(A)[sp].d(A)[sp].d(T)[sp].d([m5C])[sp].d(T)[sp].d(T)[sp].d(T)[sp].d(A)[sp].[moe](T)p.[moe]([m5C])p.[moe](A)p.[moe](G)[sp].[moe](G)}$$$$ (last 3' nucleoside missing)”, the 3 h FOB score stood at 1 score 0-7.

Take “RNA1{[moe]([m5C])[sp].[moe](T)p.[moe](G)p.d([m5C])[sp].d(G)[sp].d(A)[sp].d(T)[sp].d([m5C])[sp].d([m5C])[sp].d([m5C])[sp].d([m5C])[sp].d(A)[sp].d(T)[sp].[moe](T)p.[moe]([m5C])p.[moe]([m5C])p.[moe](A)p.[moe](G)[sp].[moe](T)}$$$$ (last 3' nucleoside missing)”: the 3 h FOB score was found to be 1.75 score 0-7.

Substance “RNA1{[moe]([m5C])[sp].[moe]([m5C])p.[moe]([m5C])p.[moe]([m5C])[sp].d(T)[sp].d(A)[sp].d(G)[sp].d([m5C])[sp].d(G)[sp].d([m5C])[sp].d(G)[sp].d([m5C])[sp].[moe](G)p.[moe](A)p.[moe]([m5C])p.[moe](T)[sp].[moe]([m5C])}$$$$ (last 3' nucleoside missing)” showed a 3 h FOB score of 1 score 0-7.

The substance “RNA1{[moe]([m5C])[sp].[moe]([m5C])p.[moe](G)p.[moe](G)p.[moe]([m5C])p.[moe]([m5C])p.[moe]([m5C])p.d([m5C])[sp].d(T)[sp].d(A)[sp].d(G)[sp].d([m5C])[sp].d(G)[sp].d([m5C])[sp].d(G)[sp].d([m5C])[sp].d(G)[sp].[moe](A)[sp].[moe]([m5C])}$$$$ (last 3' nucleoside missing)” registered a 3 h FOB score of 2 score 0-7.

Take “RNA1{[moe]([m5C])[sp].[moe](T)p.[moe](G)p.[moe](G)p.[moe](T)p.[moe](T)p.d(A)[sp].d(A)[sp].d(T)[sp].d([m5C])[sp].d(T)[sp].d(T)[sp].d(T)[sp].d(A)[sp].d(T)[sp].d([m5C])[sp].[moe](A)p.[moe](G)[sp].[moe](G)}$$$$ (last 3' nucleoside missing)”: the 3 h FOB score amounted to 0 score 0-7.

For the substance “RNA1{[moe]([m5C])[sp].[moe]([m5C])p.[moe]([m5C])p.[moe]([m5C])p.[moe](T)p.[moe](A)[sp].d(G)[sp].d([m5C])[sp].d(G)[sp].d([m5C])[sp].d(G)[sp].d([m5C])[sp].d(G)[sp].d(A)[sp].[moe]([m5C])p.[moe](T)[sp].[moe]([m5C])}$$$$ (last 3' nucleoside missing)”, the 3 h FOB score is 2 score 0-7.

In the case of “RNA1{[moe](G)[sp].[moe](G)p.[moe](T)p.[moe](T)p.[moe](A)p.[moe](A)[sp].d(T)[sp].d([m5C])[sp].d(T)[sp].d(T)[sp].d(T)[sp].d(A)[sp].d(T)[sp].d([m5C])[sp].[moe](A)p.[moe](G)[sp].[moe](G)}$$$$ (last 3' nucleoside missing)”, the 3 h FOB score amounted to 1.25 score 0-7.

For “RNA1{[moe]([m5C])[sp].[moe]([m5C])p.[moe](G)p.d(G)[sp].d([m5C])[sp].d([m5C])[sp].d([m5C])[sp].d([m5C])[sp].d(T)[sp].d(A)[sp].d(G)[sp].d([m5C])[sp].d(G)[sp].[moe]([m5C])p.[moe](G)p.[moe]([m5C])p.[moe](G)p.[moe](A)[sp].[moe]([m5C])}$$$$ (last 3' nucleoside missing)”, the 3 h FOB score was 3.25 score 0-7.

For the substance “RNA1{[moe](G)[sp].[moe](G)p.[moe]([m5C])p.[moe](T)p.d(G)[sp].d([m5C])[sp].d(G)[sp].d(G)[sp].d(T)[sp].d(T)[sp].d(G)[sp].d(T)[sp].d(T)[sp].[moe](T)p.[moe]([m5C])p.[moe]([m5C])p.[moe]([m5C])[sp].[moe](T)}$$$$ (last 3' nucleoside missing)”, the 3 h FOB score was determined as 6 score 0-7.

“RNA1{[moe]([m5C])[sp].[moe]([m5C])p.[moe]([m5C])p.[moe](T)p.[moe](A)p.[moe](G)p.d([m5C])[sp].d(G)[sp].d([m5C])[sp].d(G)[sp].d([m5C])[sp].d(G)[sp].d(A)[sp].d([m5C])[sp].d(T)[sp].d([m5C])[sp].[moe]([m5C])p.[moe](T)[sp].[moe](G)}$$$$ (last 3' nucleoside missing)” came in with a 3 h FOB score of 1.25 score 0-7.

In turn, “RNA1{[moe](G)[sp].[moe](G)p.[moe](T)p.[moe](T)p.d(A)[sp].d(A)[sp].d(T)[sp].d([m5C])[sp].d(T)[sp].d(T)[sp].d(T)[sp].d(A)[sp].d(T)[sp].d([m5C])[sp].[moe](A)p.[moe](G)p.[moe](G)p.[moe](T)[sp].[moe]([m5C])}$$$$ (last 3' nucleoside missing)” yielded a 3 h FOB score of 0 score 0-7.

“RNA1{[moe](T)[sp].[moe](G)p.[moe](G)p.[moe](T)p.[moe](T)p.[moe](A)p.[moe](A)p.d(T)[sp].d([m5C])[sp].d(T)[sp].d(T)[sp].d(T)[sp].d(A)[sp].d(T)[sp].d([m5C])[sp].d(A)[sp].d(G)[sp].[moe](G)[sp].[moe](T)}$$$$ (last 3' nucleoside missing)” gave a 3 h FOB score of 3.75 score 0-7.

Substance “RNA1{[moe]([m5C])[sp].[moe]([m5C])p.[moe](G)p.[moe](G)p.[moe]([m5C])p.d([m5C])[sp].d([m5C])[sp].d([m5C])[sp].d(T)[sp].d(A)[sp].d(G)[sp].d([m5C])[sp].d(G)[sp].d([m5C])[sp].[moe](G)p.[moe]([m5C])p.[moe](G)[sp].[moe](A)}$$$$ (last 3' nucleoside missing)” gave a 3 h FOB score of 4.5 score 0-7.

As for “RNA1{[moe]([m5C])[sp].[moe](A)p.[moe](G)p.[moe](G)p.[moe]([m5C])p.[moe](T)p.d(G)[sp].d([m5C])[sp].d(G)[sp].d(G)[sp].d(T)[sp].d(T)[sp].d(G)[sp].d(T)[sp].d(T)[sp].d(T)[sp].[moe]([m5C])p.[moe]([m5C])[sp].[moe]([m5C])}$$$$ (last 3' nucleoside missing)”, the 3 h FOB score came out at 2 score 0-7.

“RNA1{[moe](A)[sp].[moe](G)p.[moe](G)p.[moe]([m5C])p.d(T)[sp].d(G)[sp].d([m5C])[sp].d(G)[sp].d(G)[sp].d(T)[sp].d(T)[sp].d(G)[sp].d(T)[sp].d(T)[sp].[moe](T)p.[moe]([m5C])p.[moe]([m5C])p.[moe]([m5C])[sp].[moe](T)}$$$$ (last 3' nucleoside missing)” showed a 3 h FOB score of 6.25 score 0-7.

Turning to “RNA1{[moe](G)[sp].[moe](G)p.[moe]([m5C])p.[moe](T)p.[moe](G)p.[moe]([m5C])p.d(G)[sp].d(G)[sp].d(T)[sp].d(T)[sp].d(G)[sp].d(T)[sp].d(T)[sp].d(T)[sp].d([m5C])[sp].[moe]([m5C])p.[moe]([m5C])[sp].[moe](T)}$$$$ (last 3' nucleoside missing)”, the 3 h FOB score was determined as 5.25 score 0-7.

The substance “RNA1{[moe](G)[sp].[moe]([m5C])p.[moe]([m5C])p.[moe](T)p.[moe](T)p.[moe](A)[sp].d([m5C])[sp].d(T)[sp].d([m5C])[sp].d(T)[sp].d(A)[sp].d(G)[sp].d(G)[sp].d(A)[sp].[moe]([m5C])p.[moe]([m5C])[sp].[moe](A)}$$$$ (last 3' nucleoside missing)” returned a 3 h FOB score of 1 score 0-7.

“RNA1{[moe]([m5C])[sp].[moe](G)p.[moe](G)p.[moe]([m5C])p.[moe]([m5C])p.d([m5C])[sp].d([m5C])[sp].d(T)[sp].d(A)[sp].d(G)[sp].d([m5C])[sp].d(G)[sp].d([m5C])[sp].d(G)[sp].[moe]([m5C])p.[moe](G)p.[moe](A)[sp].[moe]([m5C])}$$$$ (last 3' nucleoside missing)” displayed a 3 h FOB score of 4 score 0-7.
